biological target: T1, K2A2 (CSNK2A2A) (Homo sapiens, UniProt P19784); experiment: DSF Tm panel; format: binding; details: 10 μM compound
T1 construct: purchased in-house DSF kinase panel (SGC-style construct names; the trailing letter is the construct ID)
T1 sequence (P19784 whole entry): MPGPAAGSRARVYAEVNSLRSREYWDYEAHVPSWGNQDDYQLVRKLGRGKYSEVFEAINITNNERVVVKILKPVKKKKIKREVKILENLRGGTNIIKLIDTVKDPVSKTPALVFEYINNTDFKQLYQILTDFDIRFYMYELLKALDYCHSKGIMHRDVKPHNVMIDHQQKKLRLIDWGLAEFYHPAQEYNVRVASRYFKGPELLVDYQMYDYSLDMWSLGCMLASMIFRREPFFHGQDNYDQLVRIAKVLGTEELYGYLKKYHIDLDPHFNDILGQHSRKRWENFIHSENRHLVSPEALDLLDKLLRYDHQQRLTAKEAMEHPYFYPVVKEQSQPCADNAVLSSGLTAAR

First: Cc1ccc(F)cc1CNC(=O)Nc1ccc2cc1OCCOCCNc1ccn3ncc-2c3n1 [compound 26]
Second: COc1ccccc1CNC(=O)Nc1ccc2cc1OCCOCCNc1ccn3ncc-2c3n1 [compound 29]
The ΔTm at 10 µM of the first is higher: 0.9 °C for the first, 0.3 °C for the second.

Compared with O=C(NCc1ccccc1C(F)(F)F)Nc1ccc2cc1OCCOCCNc1ccn3ncc-2c3n1 [compound 27], O=C(NCc1ccc(C(F)(F)F)cc1)Nc1ccc2cc1OCCOCCNc1ccn3ncc-2c3n1 [compound 28] is lower in ΔTm at 10 µM: 0.7 °C for the first, 0.5 °C for the second.

tested on: TAF1A; experiment: DSF Tm panel; format: binding; details: 10 μM compound

With Cc1ccc(F)cc1CNC(=O)Nc1ccc2cc1OCCOCCNc1ccn3ncc-2c3n1 [compound 26] the “ΔTm TAF1A” value was 0,1 °C.
In the case of O=C(NCc1ccccc1C(F)(F)F)Nc1ccc2cc1OCCOCCNc1ccn3ncc-2c3n1 [compound 27], the “ΔTm TAF1A” value is reported as 0,1 °C.
With O=C(NCc1ccc(C(F)(F)F)cc1)Nc1ccc2cc1OCCOCCNc1ccn3ncc-2c3n1 [compound 28] the “ΔTm TAF1A” value was 0,3 °C.
In the case of COc1ccccc1CNC(=O)Nc1ccc2cc1OCCOCCNc1ccn3ncc-2c3n1 [compound 29], the “ΔTm TAF1A” value is reported as 0,0 °C.

biological target: T2, SRCA (Homo sapiens, UniProt P12931); experiment: DSF Tm panel; format: binding; details: 10 μM compound
T2 construct: purchased in-house DSF kinase panel (SGC-style construct names; the trailing letter is the construct ID)
T2 sequence (P12931 254-536): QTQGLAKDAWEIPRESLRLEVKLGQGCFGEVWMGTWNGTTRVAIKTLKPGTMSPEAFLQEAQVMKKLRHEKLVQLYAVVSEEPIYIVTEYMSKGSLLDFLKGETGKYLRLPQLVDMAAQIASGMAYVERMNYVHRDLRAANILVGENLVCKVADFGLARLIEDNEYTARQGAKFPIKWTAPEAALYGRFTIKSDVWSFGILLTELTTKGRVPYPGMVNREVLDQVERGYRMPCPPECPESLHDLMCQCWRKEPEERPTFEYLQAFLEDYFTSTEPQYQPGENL

First: Cc1ccc(F)cc1CNC(=O)Nc1ccc2cc1OCCOCCNc1ccn3ncc-2c3n1 [compound 26]
Second: COc1ccccc1CNC(=O)Nc1ccc2cc1OCCOCCNc1ccn3ncc-2c3n1 [compound 29]
The ΔTm at 10 µM of the first is higher: 2.2 °C for the first, 2 °C for the second.

Compared with O=C(NCc1ccccc1C(F)(F)F)Nc1ccc2cc1OCCOCCNc1ccn3ncc-2c3n1 [compound 27], O=C(NCc1ccc(C(F)(F)F)cc1)Nc1ccc2cc1OCCOCCNc1ccn3ncc-2c3n1 [compound 28] is lower in ΔTm at 10 µM: 2.5 °C for the first, 2.3 °C for the second.

biological target: T3, TTKA (Homo sapiens, UniProt P33981); experiment: DSF Tm panel; format: binding; details: 10 μM compound
T3 construct: purchased in-house DSF kinase panel (SGC-style construct names; the trailing letter is the construct ID)
T3 sequence (P33981 519-808): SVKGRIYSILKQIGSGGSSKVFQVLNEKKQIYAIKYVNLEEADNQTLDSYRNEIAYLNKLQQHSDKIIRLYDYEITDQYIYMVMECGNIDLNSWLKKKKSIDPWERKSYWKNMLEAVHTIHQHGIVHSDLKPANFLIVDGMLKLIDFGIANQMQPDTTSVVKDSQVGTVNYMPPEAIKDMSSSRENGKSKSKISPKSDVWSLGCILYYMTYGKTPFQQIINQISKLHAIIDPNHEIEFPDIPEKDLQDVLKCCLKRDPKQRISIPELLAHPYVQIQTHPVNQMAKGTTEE

First: Cc1ccc(F)cc1CNC(=O)Nc1ccc2cc1OCCOCCNc1ccn3ncc-2c3n1 [compound 26]
Second: COc1ccccc1CNC(=O)Nc1ccc2cc1OCCOCCNc1ccn3ncc-2c3n1 [compound 29]
The ΔTm at 10 µM of the first is higher: 1.9 °C for the first, 1.4 °C for the second.

Going from O=C(NCc1ccccc1C(F)(F)F)Nc1ccc2cc1OCCOCCNc1ccn3ncc-2c3n1 [compound 27] to O=C(NCc1ccc(C(F)(F)F)cc1)Nc1ccc2cc1OCCOCCNc1ccn3ncc-2c3n1 [compound 28], the ΔTm at 10 µM falls from 3.5 °C to 3.1 °C.

biological target: T4, GAKA (Homo sapiens, UniProt O14976); experiment: DSF Tm panel; format: binding; details: 10 μM compound
T4 construct: purchased in-house DSF kinase panel (SGC-style construct names; the trailing letter is the construct ID)
T4 sequence (O14976 14-351): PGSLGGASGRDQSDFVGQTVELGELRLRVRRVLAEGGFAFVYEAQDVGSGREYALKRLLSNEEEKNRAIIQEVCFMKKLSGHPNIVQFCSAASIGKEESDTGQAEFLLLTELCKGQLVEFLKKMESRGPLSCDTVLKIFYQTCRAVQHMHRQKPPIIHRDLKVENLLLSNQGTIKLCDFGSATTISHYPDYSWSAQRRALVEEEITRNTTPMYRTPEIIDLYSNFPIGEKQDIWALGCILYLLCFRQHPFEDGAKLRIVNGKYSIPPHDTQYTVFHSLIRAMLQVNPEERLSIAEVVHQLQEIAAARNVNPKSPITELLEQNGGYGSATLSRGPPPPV

Going from Cc1ccc(F)cc1CNC(=O)Nc1ccc2cc1OCCOCCNc1ccn3ncc-2c3n1 [compound 26] to COc1ccccc1CNC(=O)Nc1ccc2cc1OCCOCCNc1ccn3ncc-2c3n1 [compound 29], the ΔTm at 10 µM falls from 6 °C to 4.5 °C.

Going from O=C(NCc1ccccc1C(F)(F)F)Nc1ccc2cc1OCCOCCNc1ccn3ncc-2c3n1 [compound 27] to O=C(NCc1ccc(C(F)(F)F)cc1)Nc1ccc2cc1OCCOCCNc1ccn3ncc-2c3n1 [compound 28], the ΔTm at 10 µM falls from 5.4 °C to 5.1 °C.

biological target: T5, STK6A (Homo sapiens, UniProt O14965); experiment: DSF Tm panel; format: binding; details: 10 μM compound
T5 construct: purchased in-house DSF kinase panel (SGC-style construct names; the trailing letter is the construct ID)
T5 sequence (O14965 122-403): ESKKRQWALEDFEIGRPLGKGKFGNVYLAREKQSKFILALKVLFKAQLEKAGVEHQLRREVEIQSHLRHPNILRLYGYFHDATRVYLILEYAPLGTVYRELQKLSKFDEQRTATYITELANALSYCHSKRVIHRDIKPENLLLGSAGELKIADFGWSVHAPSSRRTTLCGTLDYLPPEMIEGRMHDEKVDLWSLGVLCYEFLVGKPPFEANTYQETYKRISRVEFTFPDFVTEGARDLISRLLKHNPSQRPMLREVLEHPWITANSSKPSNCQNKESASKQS

Compared with Cc1ccc(F)cc1CNC(=O)Nc1ccc2cc1OCCOCCNc1ccn3ncc-2c3n1 [compound 26], COc1ccccc1CNC(=O)Nc1ccc2cc1OCCOCCNc1ccn3ncc-2c3n1 [compound 29] is lower in ΔTm at 10 µM: 6.4 °C for the first, 5.6 °C for the second.

First: O=C(NCc1ccccc1C(F)(F)F)Nc1ccc2cc1OCCOCCNc1ccn3ncc-2c3n1 [compound 27]
Second: O=C(NCc1ccc(C(F)(F)F)cc1)Nc1ccc2cc1OCCOCCNc1ccn3ncc-2c3n1 [compound 28]
The ΔTm at 10 µM of the first is lower: 7 °C for the first, 7.6 °C for the second.

biological target: T6, GSK3BB (Homo sapiens, UniProt P49841); experiment: DSF Tm panel; format: binding; details: 10 μM compound
T6 construct: purchased in-house DSF kinase panel (SGC-style construct names; the trailing letter is the construct ID)
T6 sequence (P49841 35-386): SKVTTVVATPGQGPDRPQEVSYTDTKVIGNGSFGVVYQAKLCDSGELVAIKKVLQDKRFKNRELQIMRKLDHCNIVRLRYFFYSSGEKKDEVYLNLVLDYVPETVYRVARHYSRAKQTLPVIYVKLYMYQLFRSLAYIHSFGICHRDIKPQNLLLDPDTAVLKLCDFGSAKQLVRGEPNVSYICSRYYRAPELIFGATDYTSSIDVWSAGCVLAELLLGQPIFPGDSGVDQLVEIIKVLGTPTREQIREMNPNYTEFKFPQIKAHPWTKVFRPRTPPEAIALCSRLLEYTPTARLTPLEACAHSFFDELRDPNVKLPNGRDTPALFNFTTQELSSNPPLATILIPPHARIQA

Going from Cc1ccc(F)cc1CNC(=O)Nc1ccc2cc1OCCOCCNc1ccn3ncc-2c3n1 [compound 26] to COc1ccccc1CNC(=O)Nc1ccc2cc1OCCOCCNc1ccn3ncc-2c3n1 [compound 29], the ΔTm at 10 µM rises from 0.5 °C to 1.2 °C.

Going from O=C(NCc1ccccc1C(F)(F)F)Nc1ccc2cc1OCCOCCNc1ccn3ncc-2c3n1 [compound 27] to O=C(NCc1ccc(C(F)(F)F)cc1)Nc1ccc2cc1OCCOCCNc1ccn3ncc-2c3n1 [compound 28], the ΔTm at 10 µM rises from -0.2 °C to 0.2 °C.

biological target: T7, BMPR2A (Homo sapiens, UniProt Q13873); experiment: DSF Tm panel; format: binding; details: 10 μM compound
T7 construct: purchased in-house DSF kinase panel (SGC-style construct names; the trailing letter is the construct ID)
T7 sequence (Q13873 27-1038): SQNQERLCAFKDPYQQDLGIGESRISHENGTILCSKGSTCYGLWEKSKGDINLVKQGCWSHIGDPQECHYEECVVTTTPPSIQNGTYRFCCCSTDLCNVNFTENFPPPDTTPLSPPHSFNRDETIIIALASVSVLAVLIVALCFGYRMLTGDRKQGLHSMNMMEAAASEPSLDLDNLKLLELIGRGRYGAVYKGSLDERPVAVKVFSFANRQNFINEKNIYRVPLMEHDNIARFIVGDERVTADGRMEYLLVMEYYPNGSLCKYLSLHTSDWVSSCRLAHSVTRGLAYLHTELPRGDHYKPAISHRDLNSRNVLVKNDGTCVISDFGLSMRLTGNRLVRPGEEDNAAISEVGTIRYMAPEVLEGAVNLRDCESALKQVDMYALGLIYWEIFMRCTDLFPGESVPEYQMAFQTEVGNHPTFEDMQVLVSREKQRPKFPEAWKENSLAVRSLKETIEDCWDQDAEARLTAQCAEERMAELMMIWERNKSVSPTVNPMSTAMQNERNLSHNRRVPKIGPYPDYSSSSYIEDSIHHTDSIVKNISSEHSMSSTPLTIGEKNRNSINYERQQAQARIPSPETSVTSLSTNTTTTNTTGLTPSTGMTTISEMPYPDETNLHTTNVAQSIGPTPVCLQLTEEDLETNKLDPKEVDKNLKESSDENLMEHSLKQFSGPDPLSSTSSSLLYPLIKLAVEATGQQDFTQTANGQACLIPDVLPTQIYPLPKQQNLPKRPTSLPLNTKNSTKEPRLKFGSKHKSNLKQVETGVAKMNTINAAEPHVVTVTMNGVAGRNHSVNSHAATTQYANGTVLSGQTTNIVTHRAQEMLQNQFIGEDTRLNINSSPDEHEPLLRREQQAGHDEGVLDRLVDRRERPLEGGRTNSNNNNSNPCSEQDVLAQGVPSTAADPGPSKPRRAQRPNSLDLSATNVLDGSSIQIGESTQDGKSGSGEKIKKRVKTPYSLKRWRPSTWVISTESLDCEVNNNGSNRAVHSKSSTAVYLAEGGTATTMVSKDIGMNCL

First: Cc1ccc(F)cc1CNC(=O)Nc1ccc2cc1OCCOCCNc1ccn3ncc-2c3n1 [compound 26]
Second: COc1ccccc1CNC(=O)Nc1ccc2cc1OCCOCCNc1ccn3ncc-2c3n1 [compound 29]
The ΔTm at 10 µM of the first is lower: 3.4 °C for the first, 4 °C for the second.

First: O=C(NCc1ccccc1C(F)(F)F)Nc1ccc2cc1OCCOCCNc1ccn3ncc-2c3n1 [compound 27]
Second: O=C(NCc1ccc(C(F)(F)F)cc1)Nc1ccc2cc1OCCOCCNc1ccn3ncc-2c3n1 [compound 28]
The ΔTm at 10 µM of the first is lower: 2.8 °C for the first, 3.2 °C for the second.

biological target: T8, BRD4 (BRD4A) (Homo sapiens, UniProt O60885); experiment: DSF Tm panel; format: binding; details: 10 μM compound
T8 construct: purchased in-house DSF kinase panel (SGC-style construct names; the trailing letter is the construct ID)

Compared with Cc1ccc(F)cc1CNC(=O)Nc1ccc2cc1OCCOCCNc1ccn3ncc-2c3n1 [compound 26], COc1ccccc1CNC(=O)Nc1ccc2cc1OCCOCCNc1ccn3ncc-2c3n1 [compound 29] is lower in ΔTm at 10 µM: 0.5 °C for the first, 0.3 °C for the second.

Going from O=C(NCc1ccccc1C(F)(F)F)Nc1ccc2cc1OCCOCCNc1ccn3ncc-2c3n1 [compound 27] to O=C(NCc1ccc(C(F)(F)F)cc1)Nc1ccc2cc1OCCOCCNc1ccn3ncc-2c3n1 [compound 28], the ΔTm at 10 µM rises from 1.8 °C to 2.1 °C.

biological target: T9, CAMK1DA (Homo sapiens, UniProt Q8IU85); experiment: DSF Tm panel; format: binding; details: 10 μM compound
T9 construct: purchased in-house DSF kinase panel (SGC-style construct names; the trailing letter is the construct ID)
T9 sequence (Q8IU85 whole entry): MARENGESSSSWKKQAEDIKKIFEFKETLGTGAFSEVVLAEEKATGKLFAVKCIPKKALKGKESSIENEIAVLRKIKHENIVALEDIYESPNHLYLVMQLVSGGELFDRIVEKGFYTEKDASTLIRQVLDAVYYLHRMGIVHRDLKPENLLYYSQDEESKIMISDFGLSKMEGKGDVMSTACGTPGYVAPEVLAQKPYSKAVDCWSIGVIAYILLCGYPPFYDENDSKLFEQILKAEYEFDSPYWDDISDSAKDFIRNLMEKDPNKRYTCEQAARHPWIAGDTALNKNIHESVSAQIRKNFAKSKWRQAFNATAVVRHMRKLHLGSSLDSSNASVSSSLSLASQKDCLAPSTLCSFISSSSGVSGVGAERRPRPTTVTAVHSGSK

Going from Cc1ccc(F)cc1CNC(=O)Nc1ccc2cc1OCCOCCNc1ccn3ncc-2c3n1 [compound 26] to COc1ccccc1CNC(=O)Nc1ccc2cc1OCCOCCNc1ccn3ncc-2c3n1 [compound 29], the ΔTm at 10 µM falls from 1 °C to 0.4 °C.

Going from O=C(NCc1ccccc1C(F)(F)F)Nc1ccc2cc1OCCOCCNc1ccn3ncc-2c3n1 [compound 27] to O=C(NCc1ccc(C(F)(F)F)cc1)Nc1ccc2cc1OCCOCCNc1ccn3ncc-2c3n1 [compound 28], the ΔTm at 10 µM rises from 1.7 °C to 2.1 °C.
